{
  "source": "patent US9944606B2",
  "about": "“Cannabinoid receptor modulators” (Arena Pharmaceuticals, Inc., priority 2009, dated 2018)",
  "key": {"[1]": {"test_system": "streptozotocin-induced painful diabetic peripheral neuropathy", "assay": "Streptozotocin-induced painful diabetic peripheral neuropathy (PDPN) model", "type": "in vivo, Sprague-Dawley rats", "settings": "diabetic allodynic rats, 10 mg/kg orally in 0.5% methylcellulose, 1, 4 and 6 hours post-dosing, FIG. 17 and FIG. 18", "experimental": "Male Sprague-Dawley rats were injected intraperitoneally with 50 mg/kg of streptozotocin (STZ) in sodium citrate buffer. 10% sucrose water was provided ad libitum for the first 48 hours post-STZ followed by regular drinking water. Rats were monitored once weekly for blood glucose levels and body weights. Development of tactile allodynia over time was analyzed using Von Frey filaments and a 50% withdrawal threshold was determined using Dixon's up-down procedure. […] Tactile allodynia was evaluated at 1, 4 and 6 hours post-dosing."}, "hCB1": {"biological_target": "hCB1 (Homo sapiens (Human), UniProt P21554)", "assay": "Radioligand binding assay, hCB1", "settings": "NR = No Response"}, "human CB2 receptor": {"biological_target": "human CB2 receptor (Homo sapiens (Human), UniProt P34972)", "assay": "Radioligand binding assay ([3H]CP55,940 / [3H]WIN55,212-2), hCB2", "settings": "HEK293 membranes expressing human CB2, NR = No Response", "experimental": "Preparation of Membranes: HEK293 cells stably expressing human CB2 receptor were collected, washed in ice cold PBS, and centrifuged at 48,000×g for 20 min at 4° C. The cell pellet was then collected, resuspended in wash buffer (20 mM HEPES, pH 7.4 and 1 mM EDTA), homogenized on ice using a Brinkman Polytron, and centrifuged at 48,000×g for 20 min at 4° C. The resultant pellet was resuspended in ice cold 20 mM HEPES, pH 7.4, homogenized again on ice, recentrifuged for 20 min at 4° C., and membrane pellets were then stored at −80° C. until needed.\n[…] and [^3H]WIN55, 212-2 Radioligand Binding Assays: Radioligand binding assays for human CB2 receptors were performed using two different agonist radioligands, [^3H]CP55,940 and [^3H]WIN55, 212-2 and similar assay conditions. For both assays, nonspecific binding was determined in the presence of 10 μM unlabeled compound. […] Then, 25 μL of BetaScint scintillation cocktail was added to each well, and plates were read in a Packard TopCount scintillation counter."}, "[2]": {"test_system": "MIA model of osteoarthritis", "assay": "MIA model of osteoarthritis pain (von Frey, weight distribution, grip strength)", "type": "in vivo, Sprague Dawley rats", "settings": "MIA rats, 3, 10 and 30 mg/kg orally, one hour after dosing, FIG. 2", "source_text": "Injection of monosodium iodoacetate (MIA) into a joint (Kalbhen, 1987) inhibits the activity of glyceraldehyde-3-phosphate dehydrogenase in chondrocytes, resulting in disruption of glycolysis and eventually in cell death. The progressive loss of chondrocytes results in histological and morphological changes of the articular cartilage, closely resembling those seen in osteoarthritis patients.\nThe osteoarthritis was induced in 200 g male Sprague Dawley rats. […]\nTypically during disease progression, there was an inflammation period of 0-7 days post-intra-articular injection followed by progressive degeneration of the cartilage and subchondral bone from days 14-55. […] Tactile allodynia was measured via von Frey assay, hind limb paw weight distribution was monitored using an incapacitence tester (Columbus Instruments, Columbus, Ohio, USA) and hind limb grip strength was measured using a grip strength meter (Columbus Instruments, Columbus, Ohio, USA). […] Hind paw weight distribution was determined by placing rats in a chamber so that each hind paw rests on a separate force plate of the incapacitence tester. The force exerted by each hind limb (measured in grams) is averaged over a 3 second period. Three measurements were taken for each rat, and the change in hind paw weight distribution calculated. […]"}, "[3]": {"test_system": "FCA-induced hyperalgesia model of inflammatory pain", "assay": "FCA-induced hyperalgesia in rats", "type": "in vivo, Sprague Dawley rats", "settings": "FCA rats, 0.1, 1, 3, 10 and 30 mg/kg orally, 1 h post dosing, Analgesy-Meter, FIG. 1", "experimental": "Animal Info: Male Sprague Dawley rats from Harlan (200-225 g when received) were used. Upon arrival, rats were housed 4 per cage in shoe-box polycarbonate cages with wire tops, wood chip bedding and suspended food and water bottles Animals were acclimated for 5-7 days prior to being injected with Freund's complete adjuvant (FCA) (Sigma; catalog #5881).\nExperimental procedure: 2 days (48 h) before testing compounds, baseline readings of all rats were taken right before FCA injection. Rats were then injected with 50 μL FCA containing 1 mg/mL Mtb (Mycobacterium tuberculosis) in right hind footpad under inhalation anesthesia (isoflurane). 48 hours after FCA injection, readings were taken as pre-dosing baseline and then rats were dosed orally with 0.5 mL of vehicle or compound (0.5 mL per 250 g rat). Readings were taken again at 1 h post dosing. All readings were taken with an Analgesy-Meter (Ugo Basile) which measures mechanical hyperalgesia via paw pressure.\nClinical scoring: FCA-induced hyperalgesia was tested with an Analgesy-Meter. Briefly, the Analgesy Meter applied an increasing pressure to the right hind paw. The paw withdrawal threshold was the pressure leading to withdrawal.\nMeanwhile a group of rats were dosed orally with 50 mg/kg of Diclofenac as a positive control. Readings were taken again at 1 h post dosing. Dosing volume was 500 μL per 250 g rat."}, "[4]": {"test_system": "paclitaxel-induced allodynia", "assay": "Paclitaxel-induced allodynia in Sprague Dawley rats", "type": "in vivo", "settings": "10 mg/kg orally, FIG. 3", "experimental": "Animals: Male Sprague Dawley rats [200-250 g] (Harlan Laboratories Inc., Livermore, Calif.) were housed three per cage and maintained in a humidity-controlled (40-60%) and temperature-controlled (68-72° F.) facility on a 12 h:12 h light/dark cycle (lights on at 6:30 am) with free access to food (Harlan Teklad, Orange, Calif., Rodent Diet 8604) and water. Rats were allowed one week of habituation to the animal facility before starting treatment.\nInduction of Allodynia: Rats were treated intraperitoneally, with 2 mg/kg of paclitaxel (Sigma Aldrich, Saint Louis, Mo.) in 10% Cremophor vehicle (500 μL) on days 0, 2, 4, and 6.\nClinical scoring: Tactile allodynia was tested using von Frey filaments. Briefly, the von Frey assay was performed using the standardized up down method with von Frey filaments, that determine the tactile sensitivity of the paw. By applying the increasingly or decreasingly thicker filaments to the paw in a logarithmic scale of actual force, a linear scale of perceived intensity is determined\nDrug treatment: Eight days after the start of paclitaxel dosing, a baseline measurement (von Frey assay) was performed prior to dosing of compounds. […] As a positive control, rats were dosed intraperitoneally with 100 mg/kg gabapentin in water. The dosing volume for oral and peritoneal treatment was 500 μL. […]"}},
  "data": [
    {"smiles": "CC(C)(C)[C@@H](CO)NC(=O)c1nn(-c2c[n+]([O-])ccn2)c2c1C[C@@H]1C[C@H]21", "note": "[Compound 699, (1aS,5aS)-2-(4-Oxy-pyrazin-2-yl)-1a,2,5,5a-tetrahydro-1H-2,3-diaza-cyclopropa[a]pentalene-4-carboxylic Acid ((S)-1-Hydroxymethyl-2,2-dimethyl-propyl)-amide]", "values": [
      {"measurement": "analgesic efficacy (tactile allodynia, 50% withdrawal threshold)", "setting": "[1]", "result": "robust and sustained analgesic efficacy over 6 hours"}
    ]},
    {"smiles": "CONC(=O)[C@@H](NC(=O)c1nn(-c2c[n+]([O-])ccn2)c2c1C[C@H]1C[C@@H]21)C(C)(C)C", "note": "[Compound 755]", "values": [
      {"measurement": "Ki", "setting": "hCB1", "result": 1200, "unit": "nM"},
      {"measurement": "Ki", "setting": "human CB2 receptor", "result": 3.8, "unit": "nM"}
    ]},
    {"smiles": "CC(C)(CO)NC(=O)c1nn(-c2ccc(F)cc2F)c2c1C[C@H]1C[C@@H]21", "note": "[Compound 493, (1aR,5aR)-2-(2,4-Difluoro-phenyl)-1a,2,5,5a-tetrahydro-1H-2,3-diaza-cyclopropa[a]pentalene-4-carboxylic Acid (2-Hydroxy-1,1-dimethyl-ethyl)-amide]", "values": [
      {"measurement": "paw withdrawal threshold (PWT) in comparison with vehicle, therapeutic efficacy", "setting": "[2]", "result": "Increase in paw withdrawal threshold (PWT)"},
      {"measurement": "paw withdrawal threshold (PWT) in comparison with vehicle, therapeutic efficacy", "setting": "[3]", "result": "increase in paw withdrawal threshold (PWT)"},
      {"measurement": "time of maximum efficacy post-dosing", "setting": "[4]; time course", "result": 1, "unit": "h"},
      {"measurement": "paw withdrawal threshold (PWT) in comparison with vehicle and gabapentin, therapeutic efficacy", "setting": "[4]; von Frey 30, 60 and 180 minutes after dosing", "result": "increase in paw withdrawal threshold (PWT)"}
    ]},
    {"smiles": "CC(C)(NC(=O)c1nn(-c2c[n+]([O-])ccn2)c2c1C[C@@H]1C[C@H]21)C(F)(F)F", "note": "[Compound 919, (1aS,5aS)-2-(4-Oxy-pyrazin-2-yl)-1a,2,5,5a-tetrahydro-1H-2,3-diaza-cyclopropa[a]pentalene-4-carboxylic acid (2,2,2-trifluoro-1,1-dimethyl-ethyl)-amide]", "values": [
      {"measurement": "analgesic efficacy (tactile allodynia, 50% withdrawal threshold)", "setting": "[1]", "result": "robust and sustained analgesic efficacy over 6 hours"}
    ]},
    {"smiles": "CNC(=O)[C@@H](NC(=O)c1nn(-c2c[n+]([O-])ccn2)c2c1C[C@@H]1C[C@H]21)C(C)(C)C", "note": "[Compound 701]", "values": [
      {"measurement": "Ki", "setting": "hCB1", "result": 105, "unit": "nM"}
    ]}
  ]
}
